# From patent publication US10294202B2, “Pyrrolidinones as herbicides” (FMC Corporation, priority 2013, dated 2019)
# Assays:
# wheat = assay: Test A pre-/postemergence herbicide test; format: in vivo, Triticum aestivum; details: Postemergence
# Procedure, shortened: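 Greenhouse pot test with pre- and postemergence application of surfactant-containing solvent formulations. Postemergence plants were 2–10 cm, one- to two-leaf stage. Response scored visually after ~10 days, 0 (no effect) to 100 (complete control).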
# sedge, umbrella = assay: Test B flooded paddy test; format: in vivo, Cyperus difformis; details: 500 g ai/ha, Flood; scale of 0 to 100 where 0 is no effect and 100 is complete control
# Procedure, shortened: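 Visual ratings from 0, meaning no effect, up to 100, meaning complete control, were made by comparison with untreated controls 13 to 15 days after treatment. Test compounds went straight into floodwater standing 3 cm over the soil of pots holding 2-leaf seedlings.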
# blackgrass = assay: Test C pre-/postemergence herbicide test; format: in vivo, Alopecurus myosuroides
# Procedure, shortened: (§1)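 Greenhouse pots; formulation = non-phytotoxic solvent mix + surfactant. PRE onto seeds in loam:sand; POST at 1–4 leaves (2–18 cm) in peat moss/vermiculite medium. Read-out: visual % control vs untreated, day 13–15.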
# wheat (winter wheat) = assay: Test C pre-/postemergence herbicide test; format: in vivo, Triticum aestivum
# Procedure, shortened: as §1
# galium = assay: Test C pre-/postemergence herbicide test; format: in vivo, Galium aparine; details: Preemergence
# Procedure, shortened: as §1
# crabgrass, large = assay: Test C pre-/postemergence herbicide test; format: in vivo, Digitaria sanguinalis
# Procedure, shortened: as §1
# johnsongrass = assay: Test C pre-/postemergence herbicide test; format: in vivo, Sorghum halepense
# Procedure, shortened: as §1
# lambsquarters = assay: Test C pre-/postemergence herbicide test; format: in vivo, Chenopodium album
# Procedure, shortened: as §1
# morningglory = assay: Test C pre-/postemergence herbicide test; format: in vivo, Ipomoea coccinea
# Procedure, shortened: as §1
# pigweed = assay: Test C pre-/postemergence herbicide test; format: in vivo, Amaranthus retroflexus
# Procedure, shortened: as §1
# waterhemp = assay: Test C pre-/postemergence herbicide test; format: in vivo, Amaranthus rudis
# Procedure, shortened: as §1
# [1] = Postemergence, 16 g ai/ha, scale 0 to 100 (0 no effect, 100 complete control)
# [2] = Postemergence, 31 g ai/ha, scale 0 to 100 (0 no effect, 100 complete control)
# [3] = Postemergence, 62 g ai/ha, scale 0 (no effect) to 100 (complete control)
# [4] = Postemergence, 125 g ai/ha, scale 0 to 100 (0 no effect, 100 complete control)
# [5] = Preemergence, 31 g ai/ha, scale 0 to 100, 0 is no effect and 100 is complete control
# [6] = Preemergence, 62 g ai/ha, scale 0 to 100 (0 no effect, 100 complete control)
# [7] = Preemergence, 125 g ai/ha, scale 0 to 100 (0 no effect, 100 complete control)
# [8] = Preemergence, 16 g ai/ha, scale 0 to 100
smiles,measurement,setting,value
CN1CC(c2ccc(C(F)(F)F)cc2)C(C(=O)Nc2ccccc2F)C1=O (stereo not shown) [Compound 304],"Plant response rating, Wheat","wheat; 125 g ai/ha, visual rating on 0 to 100 scale (0 no effect, 100 complete control), approx. 10 days",40
same,"Plant response rating, Wheat","wheat; 500 g ai/ha, 0 to 100 scale (0 no effect, 100 complete control)",60
same,"Plant response rating, Sedge, Umbrella","sedge, umbrella",0
same,"Plant response rating, Blackgrass",blackgrass; [1],0
same,"Plant response rating, Blackgrass",blackgrass; [2],0
same,"Plant response rating, Blackgrass",blackgrass; [3],0
same,"Plant response rating, Blackgrass",blackgrass; [4],0
same,Blackgrass plant response rating,blackgrass; [5],35
same,Blackgrass plant response rating,blackgrass; [6],60
same,"Plant response rating, Blackgrass",blackgrass; [7],70
same,"Plant response rating, Blackgrass",blackgrass; [8],30
same,"Plant response rating, Wheat",wheat (winter wheat); [1],0
same,"Plant response rating, Wheat",wheat (winter wheat); [2],0
same,"Plant response rating, Wheat",wheat (winter wheat); [3],0
same,"Plant response rating, Wheat",wheat (winter wheat); [4],0
same,Wheat plant response rating,wheat (winter wheat); [5],40
same,Wheat plant response rating,wheat (winter wheat); [6],50
same,"Plant response rating, Wheat",wheat (winter wheat); [8],5
same,Galium plant response rating,"galium; 31 g ai/ha, scale 0 to 100, 0 is no effect and 100 is complete control",85
same,Galium plant response rating,"galium; 62 g ai/ha, scale 0 to 100 (0 no effect, 100 complete control)",95
same,"Plant response rating, Galium","galium; 125 g ai/ha, scale 0 to 100 (0 no effect, 100 complete control)",85
same,"Plant response rating, Galium","galium; 16 g ai/ha, scale 0 to 100",100
same,"Plant response rating, Crabgrass, Large","crabgrass, large; [1]",10
same,"Plant response rating, Crabgrass, Large","crabgrass, large; [2]",10
same,"Plant response rating, Crabgrass, Large","crabgrass, large; [3]",60
same,"Plant response rating, Crabgrass, Large","crabgrass, large; [4]",80
same,"Crabgrass, Large plant response rating","crabgrass, large; [5]",95
same,"Crabgrass, Large plant response rating","crabgrass, large; [6]",95
same,"Plant response rating, Crabgrass, Large","crabgrass, large; [7]",98
same,"Plant response rating, Crabgrass, Large","crabgrass, large; [8]",90
same,"Plant response rating, Johnsongrass",johnsongrass; [1],0
same,"Plant response rating, Johnsongrass",johnsongrass; [2],0
same,"Plant response rating, Johnsongrass",johnsongrass; [3],0
same,"Plant response rating, Johnsongrass",johnsongrass; [4],0
same,Johnsongrass plant response rating,johnsongrass; [5],0
same,Johnsongrass plant response rating,johnsongrass; [6],35
same,"Plant response rating, Johnsongrass",johnsongrass; [7],35
same,"Plant response rating, Johnsongrass",johnsongrass; [8],0
same,"Plant response rating, Lambsquarters",lambsquarters; [1],65
same,"Plant response rating, Lambsquarters",lambsquarters; [2],35
same,"Plant response rating, Lambsquarters",lambsquarters; [3],75
same,"Plant response rating, Lambsquarters",lambsquarters; [4],70
same,Lambsquarters plant response rating,lambsquarters; [5],65
same,Lambsquarters plant response rating,lambsquarters; [6],70
same,"Plant response rating, Lambsquarters",lambsquarters; [7],80
same,"Plant response rating, Lambsquarters",lambsquarters; [8],30
same,"Plant response rating, Morningglory",morningglory; [1],20
same,"Plant response rating, Morningglory",morningglory; [2],50
same,"Plant response rating, Morningglory",morningglory; [3],20
same,"Plant response rating, Morningglory",morningglory; [4],45
same,Morningglory plant response rating,morningglory; [5],5
same,Morningglory plant response rating,morningglory; [6],50
same,"Plant response rating, Morningglory",morningglory; [7],40
same,"Plant response rating, Morningglory",morningglory; [8],0
same,"Plant response rating, Pigweed",pigweed; [1],25
same,"Plant response rating, Pigweed",pigweed; [2],35
same,"Plant response rating, Pigweed",pigweed; [3],55
same,"Plant response rating, Pigweed",pigweed; [4],55
same,Pigweed plant response rating,pigweed; [5],55
same,Pigweed plant response rating,pigweed; [6],75
same,"Plant response rating, Pigweed",pigweed; [7],85
same,"Plant response rating, Pigweed",pigweed; [8],40
same,"Plant response rating, Waterhemp",waterhemp; [1],40
same,"Plant response rating, Waterhemp",waterhemp; [2],50
same,"Plant response rating, Waterhemp",waterhemp; [3],65
same,"Plant response rating, Waterhemp",waterhemp; [4],80
same,Waterhemp plant response rating,waterhemp; [5],75
same,Waterhemp plant response rating,waterhemp; [6],80
same,"Plant response rating, Waterhemp",waterhemp; [7],85
same,"Plant response rating, Waterhemp",waterhemp; [8],70
